In ChEMBL document CHEMBL5233279, “d-Mannose binding, aggregation property, and antifungal activity of amide derivatives of pradimicin A” (Bioorg Med Chem, 2021) one finds Activity, MIC and Kd data, which are given here for nine compounds.

Values after ≈ are worked out from the molar mass of the structure shown.

The nature of data set [1]: Aggregation property of the compound in MPOS buffer at pH 7.0 assessed as compound remaining in supernatant incubated for 15 mins at 37 degreeC followed by 30 mins incubation at room temperature by HPLC based sedimentation assay relative to control. The data set is classed as physicochemical. The arrangement: concentration or dose not given beside the values. The following applies: pH 7, 0.75 h, time 45 min.

A further data set deals with Diutina rugosa. Put plainly: Antifungal activity against Candida rugosa AJ14513 assessed as inhibition of fungal growth incubated for 48 hrs. The data set is classed as functional.
A short description of data set [2]: Binding affinity to methyl alpha-D-mannopyranoside (unknown origin) in MPOS buffer at pH 7.0 assessed as secondary dissociation constant (Kd2) by ITC experiment. (In general: ITC needs no label: the signal is the heat of the interaction.)
Data set [3] can be described thus: Binding affinity to methyl alpha-D-mannopyranoside (unknown origin) in MPOS buffer at pH 7.0 assessed as primary dissociation constant (Kd1) by ITC experiment.
Data set [4] in a line: Aggregation property of the compound in MPOS buffer at pH 7.0 assessed as compound remaining in supernatant at 1 mM incubated for 15 mins at 37 degreeC followed by 30 mins incubation at room temperature by HPLC based sedimentation assay relative to control. The data set is classed as physicochemical. To be noted: pH 7, 0.75 h, 1000 µM, time 45 min.
Data set [5] can be described thus: Binding affinity to D-mannose (unknown origin) in MPOS buffer at pH 7.0 assessed as primary dissociation constant (Kd1) by ITC experiment.
A short description of data set [6]: Binding affinity to D-mannose (unknown origin) in MPOS buffer at pH 7.0 assessed as secondary dissociation constant (Kd2) by ITC experiment.
Data set [7] is described as follows: Aggregation property of the compound in MPOS buffer at pH 7.0 incubated for 15 mins at 37 degreeC followed by 30 mins incubation at room temperature by HPLC based sedimentation assay. The data set is classed as physicochemical. To be noted: pH 7, 0.75 h, time 45 min.

`CN[C@@H]1[C@H](O[C@@H]2OC[C@@H](O)[C@H](O)[C@H]2O)[C@@H](O)[C@H](O[C@H]2c3cc(C)c(C(=O)N[C@H](C)C(=O)NOC)c(O)c3-c3c(cc4c(c3O)C(=O)c3cc(OC)cc(O)c3C4=O)[C@@H]2O)O[C@@H]1C`: the Activity in data set [1] is listed as 65%. Besides, in the data set on Diutina rugosa, the MIC amounted to 16 µg/mL (≈ 18.4 µM). Also, the dissociation constant (Kd) was found to be 5.3 mM in data set [2] and 360 µM in data set [3].
Take `CNC(=O)[C@@H](C)NC(=O)c1c(C)cc2c(c1O)-c1c(cc3c(c1O)C(=O)c1cc(OC)cc(O)c1C3=O)[C@H](O)[C@H]2O[C@@H]1O[C@H](C)[C@H](NC)[C@H](O[C@@H]2OC[C@@H](O)[C@H](O)[C@H]2O)[C@H]1O`: in the data set with Diutina rugosa, the MIC was 16 µg/mL (≈ 18.7 µM). Further, the Kd in data set [2] came to 6.5 mM; in data set [3], 860 µM. Further, the Activity in data set [4] is on record as above 60%.
On to `CN[C@@H]1[C@H](O[C@@H]2OC[C@@H](O)[C@H](O)[C@H]2O)[C@@H](O)[C@H](O[C@H]2c3cc(C)c(C(=O)N[C@H](C)C(=O)N(C)OC)c(O)c3-c3c(cc4c(c3O)C(=O)c3cc(OC)cc(O)c3C4=O)[C@@H]2O)O[C@@H]1C`, for which, in data set [1], the Activity was found to be 65%. Besides, in the data set on Diutina rugosa, the minimal inhibitory concentration (MIC) is 16 µg/mL (≈ 18.1 µM). Besides, the Kd in data set [2] was 5.2 mM; in data set [3] it was 340 µM.
Consider `CN[C@@H]1[C@H](O[C@@H]2OC[C@@H](O)[C@H](O)[C@H]2O)[C@@H](O)[C@H](O[C@H]2c3cc(C)c(C(=O)N[C@H](C)C(N)=O)c(O)c3-c3c(cc4c(c3O)C(=O)c3cc(OC)cc(O)c3C4=O)[C@@H]2O)O[C@@H]1C`, for which, in the data set with Diutina rugosa, the minimal inhibitory concentration (MIC) came to 16 µg/mL (≈ 19.1 µM). For the same compound, the Kd in data set [2] turned out to be 5.5 mM; in data set [3], 220 µM. Further, in data set [4], the Activity is reported as above 60%.
With `CN[C@@H]1[C@H](O[C@@H]2OC[C@@H](O)[C@H](O)[C@H]2O)[C@@H](O)[C@H](O[C@H]2c3cc(C)c(C(=O)N[C@H](C)C(=O)NO)c(O)c3-c3c(cc4c(c3O)C(=O)c3cc(OC)cc(O)c3C4=O)[C@@H]2O)O[C@@H]1C`, the Activity in data set [1] is reported as 65%. The minimal inhibitory concentration (MIC) in the data set with Diutina rugosa worked out at 8 µg/mL (≈ 9.35 µM). For the same compound, the Kd in data set [2] is 4.3 mM; in data set [5], 100 µM; in data set [6], 5.5 mM; in data set [3], 75 µM.
On to `CN[C@@H]1[C@H](O[C@@H]2OC[C@@H](O)[C@H](O)[C@H]2O)[C@@H](O)[C@H](O[C@H]2c3cc(C)c(C(=O)N[C@H](C)C(=O)NN)c(O)c3-c3c(cc4c(c3O)C(=O)c3cc(OC)cc(O)c3C4=O)[C@@H]2O)O[C@@H]1C`, for which, in data set [1], the Activity was found to be 65%. For the same compound, the MIC in the data set with Diutina rugosa amounted to 16 µg/mL (≈ 18.7 µM). For the same compound, the dissociation constant Kd in data set [2] was 9.8 mM; in data set [3] it was 300 µM.
Taken in the same sequence, the figures for `CN[C@@H]1[C@H](O[C@@H]2OC[C@@H](O)[C@H](O)[C@H]2O)[C@@H](O)[C@H](O[C@H]2c3cc(C)c(C(=O)N[C@H](C)C(=O)N(C)O)c(O)c3-c3c(cc4c(c3O)C(=O)c3cc(OC)cc(O)c3C4=O)[C@@H]2O)O[C@@H]1C` were 65%, 16 µg/mL (≈ 18.4 µM), 3.5 mM and 180 µM.
With `CN[C@@H]1[C@H](O[C@@H]2OC[C@@H](O)[C@H](O)[C@H]2O)[C@@H](O)[C@H](O[C@H]2c3cc(C)c(C(=O)N[C@H](C)C(=O)NCCO)c(O)c3-c3c(cc4c(c3O)C(=O)c3cc(OC)cc(O)c3C4=O)[C@@H]2O)O[C@@H]1C`, in the data set with Diutina rugosa, the MIC was determined as 16 µg/mL (≈ 18.1 µM).
As for `CN[C@@H]1[C@H](O[C@@H]2OC[C@@H](O)[C@H](O)[C@H]2O)[C@@H](O)[C@H](O[C@H]2c3cc(C)c(C(=O)N[C@H](C)C(=O)O)c(O)c3-c3c(cc4c(c3O)C(=O)c3cc(OC)cc(O)c3C4=O)[C@@H]2O)O[C@@H]1C` [PRADIMICIN A], the MIC in the data set on Diutina rugosa was 4 µg/mL (≈ 4.76 µM). For the same compound, the outcome in data set [7] was Active. The Kd in data set [2] was found to be 3.8 mM; in data set [3] it was 96 µM.

Broadly, the MIC is the smallest concentration in the dilution series that meets the test's criterion for growth inhibition. As usually defined, the Kd is the equilibrium constant for the complex coming apart.
